In patent publication US11304946B2, “2-hetarylpyrimidine-4-carboxamides as aryl hydrocarbon receptor antagonists” (Bayer Aktiengesellschaft, priority 2017, dated 2022):

Legend:
[1] = molecular target: T1, Mouse AhR (Mus musculus, UniProt P30561); experiment: Transactivation assay in mouse cell line (in vitro assay 2: antagonism); format: cell-based; conditions: Hepa 1c1c7 cells, AHR inducible (DRE) firefly luciferase reporter, 200 μM kynurenic acid, 20 hours
T1 sequence (P30561 1-848): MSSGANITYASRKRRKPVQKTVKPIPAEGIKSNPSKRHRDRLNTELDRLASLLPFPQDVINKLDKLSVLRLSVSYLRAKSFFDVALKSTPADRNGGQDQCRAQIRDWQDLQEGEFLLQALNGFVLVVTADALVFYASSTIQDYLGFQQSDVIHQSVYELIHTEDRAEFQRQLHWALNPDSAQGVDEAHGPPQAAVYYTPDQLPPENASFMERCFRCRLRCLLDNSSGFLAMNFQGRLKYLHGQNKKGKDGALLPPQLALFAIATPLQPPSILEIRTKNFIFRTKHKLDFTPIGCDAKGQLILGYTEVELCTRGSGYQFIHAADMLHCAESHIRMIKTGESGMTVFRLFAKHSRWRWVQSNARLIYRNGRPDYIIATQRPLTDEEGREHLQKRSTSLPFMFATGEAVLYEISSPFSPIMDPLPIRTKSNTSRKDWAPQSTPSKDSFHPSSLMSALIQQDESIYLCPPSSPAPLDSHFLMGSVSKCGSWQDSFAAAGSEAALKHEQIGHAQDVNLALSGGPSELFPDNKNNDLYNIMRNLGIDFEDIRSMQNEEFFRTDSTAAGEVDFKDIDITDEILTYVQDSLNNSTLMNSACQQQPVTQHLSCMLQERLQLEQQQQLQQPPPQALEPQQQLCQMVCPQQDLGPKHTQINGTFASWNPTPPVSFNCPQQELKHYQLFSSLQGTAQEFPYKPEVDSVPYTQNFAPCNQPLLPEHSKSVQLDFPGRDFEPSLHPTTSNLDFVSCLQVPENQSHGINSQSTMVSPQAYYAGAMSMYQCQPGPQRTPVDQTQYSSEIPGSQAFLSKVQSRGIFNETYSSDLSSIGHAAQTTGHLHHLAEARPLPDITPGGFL
Description: Transactivation Assay in Mouse Cell Line (In Vitro Assay 2)
(§1) Transactivation assay was carried out in Hepa 1c1c7 cells (ATCC #CRL-2026) endogenously expressing AHR. In addition the cells were stably transfected with an AHR inducible firefly luciferase reporter gene construct that carried AHR-binding sites (DRE) in its promoter. Kynurenic acid is an endogenous AHR activating ligand and was used to prestimulate test cells prior to testing the antagonistic properties of compounds.
In Vitro Assay 2: Antagonism in Mouse Cell Line
Firefly luciferase activity was determined by the SteadyGlo Luciferase Assay System (Promega, #E2550).

[2] = molecular target: T2, Human AhR (Homo sapiens, UniProt P35869); experiment: Transactivation assay in human cell line (in vitro assay 1: antagonism); format: cell-based; conditions: U87 glioblastoma cells, AHR inducible (DRE) firefly luciferase reporter, 150 μM kynurenic acid, 20 hours
T2 construct: host or cells: U87 glioblastoma cells, stably transfected with DRE-driven firefly luciferase and constitutive renilla reporter constructs
T2 sequence (P35869 11-848): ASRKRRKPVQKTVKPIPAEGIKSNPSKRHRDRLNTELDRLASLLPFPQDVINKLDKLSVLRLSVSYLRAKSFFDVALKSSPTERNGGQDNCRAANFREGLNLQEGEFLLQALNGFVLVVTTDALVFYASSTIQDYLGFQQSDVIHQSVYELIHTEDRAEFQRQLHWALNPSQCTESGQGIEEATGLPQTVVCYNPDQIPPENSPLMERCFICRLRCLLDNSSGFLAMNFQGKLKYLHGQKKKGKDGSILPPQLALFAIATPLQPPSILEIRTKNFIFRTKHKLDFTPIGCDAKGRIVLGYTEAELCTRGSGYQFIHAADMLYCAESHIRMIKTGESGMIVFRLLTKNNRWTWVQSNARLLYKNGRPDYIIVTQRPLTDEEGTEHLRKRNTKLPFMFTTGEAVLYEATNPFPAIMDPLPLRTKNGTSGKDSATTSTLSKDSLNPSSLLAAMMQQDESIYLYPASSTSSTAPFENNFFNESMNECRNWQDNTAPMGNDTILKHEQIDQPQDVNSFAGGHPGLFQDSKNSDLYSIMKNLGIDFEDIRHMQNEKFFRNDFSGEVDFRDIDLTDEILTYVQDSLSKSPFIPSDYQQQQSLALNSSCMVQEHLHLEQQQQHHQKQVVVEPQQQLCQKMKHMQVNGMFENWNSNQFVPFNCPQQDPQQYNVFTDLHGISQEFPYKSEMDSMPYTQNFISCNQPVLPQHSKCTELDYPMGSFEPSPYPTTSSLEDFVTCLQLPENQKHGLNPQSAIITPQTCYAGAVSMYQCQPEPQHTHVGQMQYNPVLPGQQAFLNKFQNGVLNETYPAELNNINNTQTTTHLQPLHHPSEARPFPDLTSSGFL
Description: Transactivation Assay in Human Cell Line (In Vitro Assay 1)
as §1, with “U87 glioblastoma” for “Hepa 1c1c7”, “(ATCC)” for “(ATCC #CRL-2026)”, “its promoter and a renilla reporter gene construct with constitutively active” for “its”
In Vitro Assay 1: Antagonism in Human Cell Line
Firefly luciferase and Renilla activity was determined by the DualGlo Luciferase Assay System (Promega, #2920). Renilla activity was used to assess toxic effects of compounds.

Row | Structure (SMILES) | IC50 [1] [nM] | IC50 [2] [nM]
1 | C[C@@H](CO)NC(=O)c1cc(-c2ccc(OC(F)(F)F)cc2)nc(-c2cccnc2)n1 [Example 1, N-[(2S)-1-hydroxypropan-2-yl]-2-(pyridin-3-yl)-6-[4-(trifluoromethoxy)phenyl]pyrimidine-4-carboxamide] | 2.03 | 0.885
2 | C[C@H](CO)NC(=O)c1cc(-c2ccc(OC(F)(F)F)cc2)nc(-c2cccnc2)n1 [Example 2, N-[(2R)-1-hydroxypropan-2-yl]-2-(pyridin-3-yl)-6-[4-(trifluoromethoxy)phenyl]pyrimidine-4-carboxamide] | 20.3 | 2.88
3 | CC(C)(O)CNC(=O)c1cc(-c2ccc(OC(F)(F)F)cc2)nc(-c2cccnc2)n1 [Example 3, N-(2-hydroxy-2-methylpropyl)-2-(pyridin-3-yl)-6-[4-(trifluoromethoxy)phenyl]pyrimidine-4-carboxamide] | 7.81 | 3.86
4 | C[C@@H](CO)NC(=O)c1cc(-c2ccc(OC(F)(F)F)cc2)nc(-c2cnn(C)c2)n1 [Example 5, N-[(2S)-1-hydroxypropan-2-yl]-2-(1-methyl-1H-pyrazol-4-yl)-6-[4-(trifluoromethoxy)phenyl]pyrimidine-4-carboxamide] | 2.92 | 3.68
5 | Cn1cc(-c2nc(C(=O)NCC(C)(C)O)cc(-c3ccc(OC(F)(F)F)cc3)n2)cn1 [Example 6, N-(2-hydroxy-2-methylpropyl)-2-(1-methyl-1H-pyrazol-4-yl)-6-[4-(trifluoromethoxy)phenyl]pyrimidine-4-carboxamide] | 15 | 7.53
6 | CC(C)(O)CNC(=O)c1cc(-c2ccc(C(F)(F)F)cc2)nc(-c2cccnc2)n1 [Example 7, N-(2-hydroxy-2-methylpropyl)-2-(pyridin-3-yl)-6-[4-(trifluoromethyl)phenyl]pyrimidine-4-carboxamide] | 12.7 | –
7 | Cn1cc(-c2nc(C(=O)NCC(C)(C)O)cc(-c3ccc(C(F)(F)F)cc3)n2)cn1 [Example 8, N-(2-hydroxy-2-methylpropyl)-2-(1-methyl-1H-pyrazol-4-yl)-6-[4-(trifluoromethyl)phenyl]pyrimidine-4-carboxamide] | 7.19 | 2.57
8 | C[C@@H](CO)NC(=O)c1cc(-c2ccc(Cl)cc2)nc(-c2cccnc2)n1 [Example 9, 6-(4-chlorophenyl)-N-[(2S)-1-hydroxypropan-2-yl]-2-(pyridin-3-yl)pyrimidine-4-carboxamide] | 2.84 | 1.1
9 | CC(C)(O)CNC(=O)c1cc(-c2ccc(Cl)cc2)nc(-c2cccnc2)n1 [Example 10, 6-(4-chlorophenyl)-N-(2-hydroxy-2-methylpropyl)-2-(pyridin-3-yl)pyrimidine-4-carboxamide] | 8.42 | 1.38

The remaining lines, values ahead:

Row | IC50 [1] [nM] | IC50 [2] [nM] | Structure (SMILES)
10 | 7.07 | 5.74 | Cn1cc(-c2nc(C(=O)N[C@@H]3CC[C@H]3O)cc(-c3ccc(OC(F)(F)F)cc3)n2)cn1 (relative stereo) [Example 86, N-[(trans)-2-hydroxycyclobutyl]-2-(1-methyl-1H-pyrazol-4-yl)-6-[4-(trifluoromethoxy)phenyl]pyrimidine-4-carboxamide]
11 | 5.79 | 4.27 | Cn1cc(-c2nc(C(=O)N[C@H]3CCCC[C@@H]3O)cc(-c3ccc(OC(F)(F)F)cc3)n2)cn1 (relative stereo) [Example 92, N-[(trans)-2-hydroxycyclohexyl]-2-(1-methyl-1H-pyrazol-4-yl)-6-[4-(trifluoromethoxy)phenyl]pyrimidine-4-carboxamide]
12 | 8.18 | 10.1 | Cn1cc(-c2nc(C(=O)N[C@@H]3CS(=O)(=O)C[C@H]3O)cc(-c3ccc(OC(F)(F)F)cc3)n2)cn1 (relative stereo) [Example 100, N-[(trans)-4-hydroxy-1,1-dioxo-1lambda^6-thiolan-3-yl]-2-(1-methyl-1H-pyrazol-4-yl)-6-[4-(trifluoromethoxy)phenyl]pyrimidine-4-carboxamide]
13 | 6.01 | 8.48 | Cn1cc(-c2nc(C(=O)N[C@@H]3COC[C@@H]3O)cc(-c3ccc(OC(F)(F)F)cc3)n2)cn1 (relative stereo) [Example 105, N-[(cis)-4-hydroxyoxolan-3-yl]-2-(1-methyl-1H-pyrazol-4-yl)-6-[4-(trifluoromethoxy)phenyl]pyrimidine-4-carboxamide]
14 | 3.93 | 5.33 | Cn1cc(-c2nc(C(=O)N[C@H]3CCC[C@@H]3O)cc(-c3ccc(OC(F)(F)F)cc3)n2)cn1 (stereo in doubt) [Example 87, N-[(trans)-2-hydroxycyclopentyl]-2-(1-methyl-1H-pyrazol-4-yl)-6-[4-(trifluoromethoxy)phenyl]pyrimidine-4-carboxamide]
15 | 56.1 | 53.2 | Cn1cc(-c2nc(C(=O)N[C@@H]3CCC[C@H]3O)cc(-c3ccc(OC(F)(F)F)cc3)n2)cn1 (stereo in doubt) [Example 96, N-[(trans)-2-hydroxycyclopentyl]-2-(1-methyl-1H-pyrazol-4-yl)-6-[4-(trifluoromethoxy)phenyl]pyrimidine-4-carboxamide]
16 | 4.8 | – | COc1ccncc1-c1nc(C(=O)NCC(C)(C)O)cc(-c2ccc(Cl)cc2)n1 [Example 61, 6-(4-chlorophenyl)-N-(2-hydroxy-2-methylpropyl)-2-(4-methoxypyridin-3-yl)pyrimidine-4-carboxamide]
17 | – | 17600 | C[C@@H](CO)NC(=O)c1cc(-c2ccc(Cl)cc2)nc(-c2cnc(Cl)nc2)n1 [Example 84, 2′-chloro-6-(4-chlorophenyl)-N-[(2S)-1-hydroxypropan-2-yl][2,5′-bipyrimidine]-4-carboxamide]
18 | – | 4.99 | Cn1cc(-c2nc(C(=O)NCC3(O)CCC3)cc(-c3ccc(OC(F)(F)F)cc3)n2)cn1 [Example 97, N-[(1-hydroxycyclobutyl)methyl]-2-(1-methyl-1H-pyrazol-4-yl)-6-[4-(trifluoromethoxy)phenyl]pyrimidine-4-carboxamide]
19 | 1.97 | – | CC(C)[C@@H](CO)NC(=O)c1cc(-c2ccc(OC(F)(F)F)cc2)nc(-c2cnn(C)c2)n1 [Example 116, N-[(2S)-1-hydroxy-3-methylbutan-2-yl]-2-(1-methyl-1H-pyrazol-4-yl)-6-[4-(trifluoromethoxy)phenyl]pyrimidine-4-carboxamide]
20 | 10.2 | – | CC(C)(O)CNC(=O)c1cc(-c2ccc(C(F)F)cc2)nc(-c2cccnc2)n1 [Example 120, 6-[4-(difluoromethyl)phenyl]-N-(2-hydroxy-2-methylpropyl)-2-(pyridin-3-yl)pyrimidine-4-carboxamide]
